From patent US12465605B2, “Methods and materials for gender-dependent treatment of cardiovascular dysfunction” (Mayo Foundation for Medical Education and Research, priority 2019, dated 2025)

Experiments:
[1] = tested on: LPA-induced BMP signaling; experiment: LPA-induced BMP signaling (Osterix mRNA) in aortic valve interstitial cells; format: cell-based; conditions: 18:0 lyso-PA with ataciguat
Protocol: In vitro cell culture studies: Aortic valve interstitial cells were isolated using an outgrowth method, and were expanded in DMEM/F-10 medium with 10% FBS and studied in passages 2-10. Cells were treated for 24 hours under each experimental condition, at which point mRNA was harvested using lysis buffer. After mRNA isolation and reverse transcription, gene expression was measured using quantitative real-time RT-PCR and Taqman primers. Changes in gene expression were assessed by the ddCt method and expressed as fold-change normalized to control conditions.
Additional studies were conducted in aortic valve interstitial cells to examine the effects of ataciguat on LPA-induced BMP signaling and BMP target gene expression. Cells were treated with 18:0 lyso-PA, with or without ataciguat, and Osterix mRNA levels were determined.

[2] = target: T1, sGC (Mus musculus, UniProt O54865); experiment: sGC signaling (phospho-VASP239) in mouse aortic valve interstitial cells; format: cell-based; conditions: otherwise naïve mVICs, vs vehicle-treated cells
T1 construct: endogenous in cells; host or cells: primary mouse aortic valve interstitial cells (mVICs) from C57BL6/J mice
T1 sequence (O54865 1-620): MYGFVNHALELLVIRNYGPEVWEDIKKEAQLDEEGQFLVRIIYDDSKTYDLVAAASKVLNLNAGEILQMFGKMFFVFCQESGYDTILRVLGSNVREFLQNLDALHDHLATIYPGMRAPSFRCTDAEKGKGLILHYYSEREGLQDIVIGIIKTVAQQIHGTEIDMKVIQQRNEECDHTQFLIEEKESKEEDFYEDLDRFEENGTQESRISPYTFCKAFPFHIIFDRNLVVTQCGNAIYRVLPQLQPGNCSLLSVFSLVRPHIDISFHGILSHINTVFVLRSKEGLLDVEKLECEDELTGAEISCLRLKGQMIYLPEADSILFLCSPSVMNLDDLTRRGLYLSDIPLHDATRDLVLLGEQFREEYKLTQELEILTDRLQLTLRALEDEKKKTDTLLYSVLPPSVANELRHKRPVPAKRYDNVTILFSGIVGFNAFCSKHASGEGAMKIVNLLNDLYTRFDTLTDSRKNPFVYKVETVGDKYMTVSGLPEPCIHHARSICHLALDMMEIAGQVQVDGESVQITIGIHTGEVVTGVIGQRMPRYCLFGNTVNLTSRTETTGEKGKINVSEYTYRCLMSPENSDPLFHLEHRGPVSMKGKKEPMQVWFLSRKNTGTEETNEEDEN
T1 sequence (Q9ERL9 1-691 partner): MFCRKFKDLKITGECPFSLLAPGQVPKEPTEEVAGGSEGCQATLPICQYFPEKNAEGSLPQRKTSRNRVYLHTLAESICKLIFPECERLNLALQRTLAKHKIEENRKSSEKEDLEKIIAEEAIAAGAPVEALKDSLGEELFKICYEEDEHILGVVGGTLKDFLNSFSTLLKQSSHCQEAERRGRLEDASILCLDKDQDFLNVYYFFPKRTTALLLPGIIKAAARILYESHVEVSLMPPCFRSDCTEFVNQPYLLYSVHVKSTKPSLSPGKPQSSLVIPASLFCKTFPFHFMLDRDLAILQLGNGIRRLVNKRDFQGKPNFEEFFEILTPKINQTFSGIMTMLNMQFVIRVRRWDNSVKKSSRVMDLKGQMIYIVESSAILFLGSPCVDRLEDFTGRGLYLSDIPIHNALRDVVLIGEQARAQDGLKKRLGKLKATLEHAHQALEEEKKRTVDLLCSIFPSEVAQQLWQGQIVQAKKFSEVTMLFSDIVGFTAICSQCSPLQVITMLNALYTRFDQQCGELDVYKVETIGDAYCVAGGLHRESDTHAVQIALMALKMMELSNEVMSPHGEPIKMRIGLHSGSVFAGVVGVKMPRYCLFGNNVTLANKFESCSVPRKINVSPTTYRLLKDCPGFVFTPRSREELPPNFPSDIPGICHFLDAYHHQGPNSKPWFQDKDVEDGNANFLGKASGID
Protocol: (§1) To confirm that ataciguat effectively activated sGC in cells, mouse aortic valve interstitial cells (mVICs) were isolated from C57BL6/J mice treated with ataciguat or other sGC agonists as internal controls. […] To determine whether ataciguat could attenuate signaling cascades central to the initiation and progression of valve calcification in vitro, cells were treated with BMP2 with or without ataciguat. In these studies, ataciguat reduced phospho-SMAD1/5/8 signaling (e.g., canonical BMP signaling) as well as expression of osteogenic genes induced by BMP2 (e.g., osterix).

[3] = tested on: canonical BMP signaling; experiment: BMP2-induced signaling in aortic valve interstitial cells; format: cell-based, mouse; conditions: cells treated with BMP2 with or without ataciguat
Protocol: as §1

O=C(Nc1ccc(S(=O)(=O)N2CCOCC2)cc1)c1cc(Cl)ccc1NS(=O)(=O)c1ccc(Cl)s1 [ataciguat, 5-chloro-2-[[(5-chloro-2-thienyl)sulfonyl]amino]-N-[4-(4-morpholinylsulfonyl)phenyl]-benzamide]
LPA effect on expression of Osterix [1]: dramatically suppressed | sGC-dependent signaling (phospho-VASP^239 levels) [2]: significantly increased | expression of osteogenic genes induced by BMP2 (e.g., osterix) [3]: reduced | phospho-SMAD1/5/8 signaling (canonical BMP signaling) [3]: reduced
